Experimental data reported in article PMC11220827 (Frontiers in Pharmacology, 2024).
Like-named read-outs stand apart in the source and are kept apart here. Blank lines part the entries; values can stand above or below the compound they belong to.

Key:
HepG2 cells = assay: cells; assay type: cell-based
[1] = target: T1, human thyroid peroxidase (hTPO) (Homo sapiens, UniProt P07202); conditions: reference
T1 sequence (P07202 19-933): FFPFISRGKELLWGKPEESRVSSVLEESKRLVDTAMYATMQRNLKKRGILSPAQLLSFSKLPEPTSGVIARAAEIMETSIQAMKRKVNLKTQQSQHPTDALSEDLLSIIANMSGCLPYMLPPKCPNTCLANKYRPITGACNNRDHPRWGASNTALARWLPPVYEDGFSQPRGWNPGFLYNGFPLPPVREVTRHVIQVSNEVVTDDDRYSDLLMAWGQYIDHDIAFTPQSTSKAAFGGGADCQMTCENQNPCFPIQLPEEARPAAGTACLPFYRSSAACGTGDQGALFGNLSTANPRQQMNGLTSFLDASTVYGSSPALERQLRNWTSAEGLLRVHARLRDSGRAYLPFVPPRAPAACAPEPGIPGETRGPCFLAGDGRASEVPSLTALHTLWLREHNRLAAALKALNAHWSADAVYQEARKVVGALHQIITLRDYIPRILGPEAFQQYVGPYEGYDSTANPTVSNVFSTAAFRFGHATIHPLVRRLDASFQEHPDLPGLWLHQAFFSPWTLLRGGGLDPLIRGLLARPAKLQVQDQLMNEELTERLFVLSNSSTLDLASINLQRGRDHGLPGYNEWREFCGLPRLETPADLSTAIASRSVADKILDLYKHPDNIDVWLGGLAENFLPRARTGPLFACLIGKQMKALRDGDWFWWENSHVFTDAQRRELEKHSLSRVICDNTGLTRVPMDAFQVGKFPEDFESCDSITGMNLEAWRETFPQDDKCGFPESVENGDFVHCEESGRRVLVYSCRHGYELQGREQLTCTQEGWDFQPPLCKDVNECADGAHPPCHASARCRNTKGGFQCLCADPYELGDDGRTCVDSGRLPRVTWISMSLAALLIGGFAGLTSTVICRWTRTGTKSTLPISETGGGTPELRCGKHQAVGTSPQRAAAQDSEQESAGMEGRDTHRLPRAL
Protocol: hTPO was derived from Nthy-ori 3-1 cells. Cell lysate containing hTPO in Glycine-NaOH buffer (pH
9.0) was incubated for 30 minutes at 37°C in the presence of serial dilutions of the compounds in
(§1) DMSO (1% compound stock in incubation mixture).
was measured on a Berthold luminometer.
(§2) Preincubation with rat liver S9 fraction
(§3) To assess the effect of metabolism on the activity of the test
compound for these assays, preincubations with rat liver S9 were performed.

Transthyretin (TTR) = Transthyretin (TTR) (Homo sapiens, UniProt P02766); conditions: reference
Protocol: DMSO (1% compound stock in incubation mixture). The incubation mixture was transferred to 96 -
was measured on a Berthold luminometer.
(§4) Serial dilutions of the compounds were incubated in Tris -buffer (pH 8.0) overnight at 4°C in the
(§5) incubation mixture). After incubation, TTR-bound and free T4 were separated on a Bio-Gel P-6DG
(§6) column. The eluate was added to assay medium after which TRβ CALUX cells were exposed for 24 h
(see CALUX bioassays). For this TRβ CALUX exposure, serum-free assay medium was used.

H295R cells [2] = conditions: reference: Forskolin (↑), prochloraz (↓)
Protocol: as §1
was measured on a Berthold luminometer.
as §4, §5, §6
(§7) For this TRβ CALUX exposure, serum-free assay medium was used.
(§8) wells plates in assay medium, and exposed for 48h to a serial dilution of the compound in triplicate
(§9) exposure, the assay medium was analysed on the ERα and AR CALUX bioassays as described
(§10) Changes in hormone levels compared to a vehicle control exposure
as §2, §3
(§11) compound for these assays, preincubations with rat liver S9 were performed. Compounds (10 μl
(§12) DMSO stock solution) were incubated for 0 h (control) or 3 h (test condition) in a total volume of 1
(§13) ml TRIS buffer in the presence of 1% (v/v) PB/BNF induced rat liver S9 mix (including NADPH and
(§14) an NADPH-regenerating system). After incubation, the reaction was stopped by the addition of ice
(§15) cold acetone, and samples were frozen to stimulate protein precipitation. After thawing, the
(§16) precipitated protein fraction was subsequently removed by centrifugation. The supernatant, cont aining
(§17) the metabolites and any remaining non-metabolised parent compound, was concentrated under a
(§18) gentle nitrogen flow. After evaporating to dryness, the sample was taken up in 50 μl DMSO followed
(§19) by the addition of 50 μl TRIS buffer. This extract was used for the exposure of the hTPO inhibition,
(§20) Relative light units (RLUs) of the CALUX assays were analysed as follows. For agonist assays,
(§21) background values (exposure to DMSO only) were subtracted, and the maximum activity of the
(§22) assay’s reference compound was set to 100%. For antagonist assays, the basal signal (exposure to fixed concentration of agonist only) was set to 100%. Activity of the samples was scaled accordingly,
(§23) resulting in expression of the data as “percentage of maximum reference response”. Graphs were
(§24) generated using the statistical software package GraphPad Prism V5.03. Using these graphs, lowest
(§25) effect concentrations (LOECs) and PC50 concentrations were determined; LOEC is defined as the
(§26) maximum reference compound activity for agonist assays, and 20% of the maximum reference
(§27) compound activity for antagonist assays. The PC50 is defined as the concentration where the activity
(§28) of the sample equals 50% of the maximum activity of the assay’s reference compound.
(§29) the test compound was divided by the amount of estrogens and androgens produced by the solvent
(§30) control-exposed cells. A sample was considered ‘active’ if it decreased the hormone production 0.8-

H295R cells [3] = conditions: reference: Forskolin (↑), prochloraz (↓); remark: listed apart in the source
Protocol: as §1
was measured on a Berthold luminometer.
as §4, §5, §6, §7, §8, §9, §10, §2, §3, §11, §12, §13, §14, §15, §16, §17, §18, §19, §20, §21, §22, §23, §24, §25, §26, §27, §28, §29, §30

[4] = HepG2, 24 h, NR = No response observed

Compound: Cc1oncc1C(=O)Nc1ccc(C(F)(F)F)cc1 [Leflunamide, reference compound]
Nuclear size: Effect (HepG2 cells): increase | Nuclear size: MEC (HepG2 cells): 1.18 µM | AC50 (HepG2 cells; HepG2, 24 h, read-out: Nuclear size: AC50): 9.87 µM

Compound: Cn1cc[nH]c1=S [Methimazole, reference compound]
hTPO inhibition (thyroid) LOEC, reference compound [1]: −6.3 Log M

Mitochondrial oxidative stress: PGC1α: MEC (HepG2 cells; human, 24 h): 67.8 µM
Compound: CN(CCOc1ccc(CC2SC(=O)NC2=O)cc1)c1ccccn1 (centres unmarked) [Rosiglitazone, reference compound]
AC50 (HepG2 cells; Homo sapiens, HepG2, 24 h, read-out: Mitochondrial oxidative stress: PGC1α: AC50): > 125 µM

Compound: C=C(C)[C@H]1Cc2c(ccc3c2O[C@@H]2COc4cc(OC)c(OC)cc4[C@@H]2C3=O)O1 [Rotenone, reference compound]
Cellular ATP: MEC (HepG2 cells; HepG2, 24 h): < 0.04 µM | LDH release: MEC (HepG2 cells; HepG2, 24 h): 0.138 µM | Mitochondrial membrane potential: MEC (HepG2 cells; HepG2, 24 h): 0.00254 µM | Oxidative stress (ROS): MEC (HepG2 cells; HepG2, 24 h): 0.681 µM | Seahorse assay: Extracellular acidification rate (ECAR): MEC (HepG2 cells; HepG2, 24 h): 0.00546 µM | Seahorse assay: oxygen consumption rate (OCR): MEC (HepG2 cells; HepG2, 24 h): 0.000832 µM | Seahorse assay: reserve capacity: MEC (HepG2 cells; HepG2, 24 h): 0.000657 µM | AC50 (HepG2 cells; Homo sapiens, HepG2, 24 h, read-out: Cellular ATP: AC50): 3.05 µM | AC50 (HepG2 cells; Homo sapiens, HepG2, 24 h, read-out: LDH release: AC50): 57.6 µM | AC50 (HepG2 cells; Homo sapiens, HepG2, 24 h, read-out: Mitochondrial membrane potential: AC50): 0.094 µM | AC50 (HepG2 cells; Homo sapiens, HepG2, 24 h, read-out: Oxidative stress (ROS): AC50): > 100 µM | AC50 (HepG2 cells; Homo sapiens, HepG2, 24 h, read-out: Seahorse assay: Extracellular acidification rate (ECAR): AC50): 0.00549 µM | AC50 (HepG2 cells; Homo sapiens, HepG2, 24 h, read-out: Seahorse assay: oxygen consumption rate (OCR): AC50): 0.00432 µM | AC50 (HepG2 cells; Homo sapiens, HepG2, 24 h, read-out: Seahorse assay: reserve capacity: AC50): 0.00248 µM

Compound: CN[C@H]1CC[C@@H](c2ccc(Cl)c(Cl)c2)c2ccccc21 [Sertraline, reference compound]
ER stress panel 2: PERK: Effect (HepG2 cells): increase | Phospholipidosis: Effect (HepG2 cells): increase | Steatosis: Effect (HepG2 cells): increase | AC50 (HepG2 cells; Homo sapiens, HepG2, 24 h, read-out: ER stress panel 2: PERK: AC50): > 6.25 µM | ER stress panel 2: PERK: MEC (HepG2 cells; human, 24 h): 2.17 µM | Phospholipidosis: Fold increase (HepG2 cells; human, 24 h): 4.16 | Phospholipidosis: MEC (HepG2 cells; human, 24 h): 0.0965 µM | Steatosis: Fold increase (HepG2 cells; human, 24 h): 2.02 | Steatosis: MEC (HepG2 cells; human, 24 h): 8.36 µM

Compound: [Cl-].[Na+] [Sodium chloride, reference compound]
Osmotic & heat shock: NFAT: MEC (HepG2 cells; HepG2, 24 h): 1430 µM | Osmotic & heat shock: NFAT: Effect (HepG2 cells; [4]): increase | AC50 (HepG2 cells; HepG2, 24 h, read-out: Osmotic & heat shock: NFAT: AC50): > 80000 µM

Compound: OC[C@@H](O)[C@@H](O)[C@H](O)[C@@H](O)CO [Sorbitol, reference compound]
Osmotic & heat shock: hsp70: Effect (HepG2 cells): increase | AC50 (HepG2 cells; Homo sapiens, HepG2, 24 h, read-out: Osmotic & heat shock: hsp70: AC50): 91700 µM | Osmotic & heat shock: hsp70: MEC (HepG2 cells; human, 24 h): 29000 µM

Compound: CC(C)(c1cc(Br)c(O)c(Br)c1)c1cc(Br)c(O)c(Br)c1 [Tetrabromobisphenol A, reference compound]
TTR binding (thyroid) LOEC, reference compound (Transthyretin (TTR)): −7.9 Log M

Compound: CCCN(CCOc1c(Cl)cc(Cl)cc1Cl)C(=O)n1ccnc1 [prochloraz, reference compound]
Steroidogenesis (AR) Testosterone LOEC, reference compound (H295R cells [2]): −6.0 Log M | Steroidogenesis (ERα) 17β-estradiol LOEC, reference compound (H295R cells [3]): −6.0 Log M

Compound: Tunicamycin [reference compound]
ER stress panel 1: BiP: MEC (HepG2 cells; HepG2, 24 h): < 0.391 µM | ER stress panel 1: ER integrity: MEC (HepG2 cells; HepG2, 24 h): 0.453 µM | ER stress panel 1: XBP1: MEC (HepG2 cells; HepG2, 24 h): 0.532 µM | ER stress panel 2: ATF4: MEC (HepG2 cells; HepG2, 24 h): < 0.391 µM | ER stress panel 2: CHOP: MEC (HepG2 cells; HepG2, 24 h): 0.955 µM | ER stress panel 1: BiP: Effect (HepG2 cells; [4]): increase | ER stress panel 1: ER integrity: Effect (HepG2 cells; [4]): increase | ER stress panel 1: XBP1: Effect (HepG2 cells; [4]): increase | ER stress panel 2: ATF4: Effect (HepG2 cells; [4]): increase | ER stress panel 2: CHOP: Effect (HepG2 cells; [4]): increase | AC50 (HepG2 cells; HepG2, 24 h, read-out: ER stress panel 1: BiP: AC50): > 1.56 µM | AC50 (HepG2 cells; HepG2, 24 h, read-out: ER stress panel 1: ER integrity: AC50): 2.22 µM | AC50 (HepG2 cells; HepG2, 24 h, read-out: ER stress panel 1: XBP1: AC50): > 3.13 µM | AC50 (HepG2 cells; HepG2, 24 h, read-out: ER stress panel 2: ATF4: AC50): 27.9 µM | AC50 (HepG2 cells; HepG2, 24 h, read-out: ER stress panel 2: CHOP: AC50): > 6.25 µM
